From ChEMBL document CHEMBL1135703, “Synthesis and biological activity of a novel class of small molecular weight peptidomimetic competitive inhibitors of protein tyrosine phosphatase 1B” (2002)

target: T1, Tyrosine-protein phosphatase non-receptor type 1 (Rattus norvegicus) (UniProt P20417); assay: Percent inhibition of Protein-tyrosine phosphatase 1 (PTP) assayed at 100 uM; conditions: not given
T1 sequence (whole entry): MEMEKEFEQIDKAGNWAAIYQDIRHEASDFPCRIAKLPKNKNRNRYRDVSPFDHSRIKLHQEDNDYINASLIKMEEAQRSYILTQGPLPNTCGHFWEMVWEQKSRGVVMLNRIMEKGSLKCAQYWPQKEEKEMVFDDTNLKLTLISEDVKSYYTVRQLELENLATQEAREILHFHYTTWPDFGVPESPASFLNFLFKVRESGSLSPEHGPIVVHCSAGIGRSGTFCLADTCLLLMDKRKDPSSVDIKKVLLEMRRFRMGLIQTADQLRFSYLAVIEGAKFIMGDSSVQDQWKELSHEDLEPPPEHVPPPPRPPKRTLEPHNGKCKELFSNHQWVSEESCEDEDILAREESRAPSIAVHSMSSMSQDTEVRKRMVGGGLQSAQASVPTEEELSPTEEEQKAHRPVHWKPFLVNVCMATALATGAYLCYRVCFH

Row | SMILES | inhibition
1 | CCCCCNC(=O)C(Cc1ccc(O)c(C(=O)O)c1)NC(=O)CCC(=O)O (centres undefined) | 0%
2 | O=C(O)CCC(=O)NC(Cc1ccc(OC(C(=O)O)C(=O)O)cc1)C(=O)NCc1cccc2ccccc12 (centres undefined) | 61%
3 | CCCCCNC(=O)C(Cc1ccc(C=C(C(=O)O)C(=O)O)cc1)NC(=O)CCC(=O)O (centres undefined) | 33%
4 | CCCCCNC(=O)C(CCc1ccc(OC(C(=O)O)C(=O)O)cc1)NC(=O)CCC(=O)O (centres undefined) | 18%
5 | NS(=O)(=O)c1ccc(CCNC(=O)C(Cc2ccc(OC(C(=O)O)C(=O)O)cc2)NC(=O)CCC(=O)O)cc1 (centres undefined) | 63%
6 | CCCCCNC(=O)C(Cc1ccc(OC(C(=O)O)C(=O)O)cc1)NC(=O)[C@H](COc1ccc(Cc2cc(Cl)ccc2Cl)cc1)NC(=O)OC(C)(C)C (some centres undefined) | 85%
7 | O=C(O)CCC(=O)NC(Cc1ccc(OC(C(=O)O)C(=O)O)cc1)C(=O)NCc1ccc(C(F)(F)F)cc1 (centres undefined) | 66%
8 | CCCCCNC(=O)C(Cc1ccc(OC(C(=O)O)C(=O)O)cc1)NC(=O)CCCC(=O)O (centres undefined) | 67%
9 | CCCCCNC(=O)C(Cc1ccc(OC(C(=O)OCC)C(=O)OCC)cc1)NC(=O)CCC(=O)O (centres undefined) | 1%
10 | CCCCCNC(=O)C(Cc1ccc(OC(C(=O)O)C(=O)O)cc1)NC(=O)CC1(CC(=O)O)CCCC1 (centres undefined) | 72%
11 | O=C(O)CCC(=O)NC(Cc1ccc(OC(C(=O)O)C(=O)O)cc1)C(=O)NCc1ccc2c(c1)OCO2 (centres undefined) | 63%
12 | CC(C)CCNC(=O)C(Cc1ccc(OC(C(=O)O)C(=O)O)cc1)NC(=O)CCC(=O)O (centres undefined) | 48%
13 | CCCCCCNC(=O)C(Cc1ccc(OC(C(=O)O)C(=O)O)cc1)NC(=O)CCC(=O)O (centres undefined) | 74%
14 | CCCCCNC(=O)[C@@H](Cc1ccc(OC(C(=O)O)C(=O)O)cc1)NC(=O)CCC(=O)O | 39%
15 | CCCCCNC(=O)C(Cc1ccc(CC(C(=O)O)C(=O)O)cc1)NC(=O)CCC(=O)O (centres undefined) | 34%
16 | O=C(O)CCC(=O)NC(Cc1ccc(OC(C(=O)O)C(=O)O)cc1)C(=O)NCC1CCCCC1 (centres undefined) | 73%
17 | CCCCC(N)C(=O)NC(=O)C(Cc1ccc(OC(C(=O)O)C(=O)O)cc1)NC(=O)CCC(=O)O (centres undefined) | 93%
18 | CCCCCCCCCCNC(=O)C(Cc1ccc(OC(C(=O)O)C(=O)O)cc1)NC(=O)CCC(=O)O (centres undefined) | 51%
19 | CCCCCNC(=O)C(Cc1ccc(OCC(=O)O)cc1)NC(=O)CCC(=O)O (centres undefined) | 14%
20 | CCCCCNC(=O)C(Cc1ccc(OC(C(=O)O)C(=O)O)cc1)NC(=O)COCC(=O)O (centres undefined) | 53%
21 | CCCCCNC(=O)C(Cc1ccc(OC(C(=O)O)C(=O)O)cc1)NC(=O)[C@H](CC(=O)O)NC(=O)OCc1ccccc1 (some centres undefined) | 90%
22 | CCCCCNC(=O)C(Cc1ccc(OC(C(=O)O)C(=O)O)cc1)NC(=O)[C@H](COc1ccc(Cc2cc(Cl)ccc2Cl)cc1)NC(=O)CCC(=O)O (some centres undefined) | 98%
23 | CCCCCNC(=O)C(Cc1ccc(OC(C(=O)O)C(=O)O)cc1)NC(=O)[C@H]1CCCC[C@@H]1C(=O)O (some centres undefined) | 72%
24 | CCCCCNC(=O)C(Cc1ccc(OC(C(=O)O)C(=O)O)cc1)NC(=O)[C@H](Cc1ccc(C(=O)c2ccccc2)cc1)NC(=O)OC(C)(C)C (some centres undefined) | 91%
25 | CCCCCNC(=O)C(Cc1ccc(OC(C(=O)O)C(=O)O)cc1)NC(=O)CC(C)(C)CC(=O)O (centres undefined) | 67%

target: T2, Tyrosine-protein phosphatase non-receptor type 11 (Mus musculus) (UniProt P35235); assay: Percent inhibition of Tyrosine phosphatase SHP2 SH2 domain containing PTP involved in insulin uM; set-up: concentration or dose not given beside the values; conditions: concentration not given here
T2 sequence (whole entry): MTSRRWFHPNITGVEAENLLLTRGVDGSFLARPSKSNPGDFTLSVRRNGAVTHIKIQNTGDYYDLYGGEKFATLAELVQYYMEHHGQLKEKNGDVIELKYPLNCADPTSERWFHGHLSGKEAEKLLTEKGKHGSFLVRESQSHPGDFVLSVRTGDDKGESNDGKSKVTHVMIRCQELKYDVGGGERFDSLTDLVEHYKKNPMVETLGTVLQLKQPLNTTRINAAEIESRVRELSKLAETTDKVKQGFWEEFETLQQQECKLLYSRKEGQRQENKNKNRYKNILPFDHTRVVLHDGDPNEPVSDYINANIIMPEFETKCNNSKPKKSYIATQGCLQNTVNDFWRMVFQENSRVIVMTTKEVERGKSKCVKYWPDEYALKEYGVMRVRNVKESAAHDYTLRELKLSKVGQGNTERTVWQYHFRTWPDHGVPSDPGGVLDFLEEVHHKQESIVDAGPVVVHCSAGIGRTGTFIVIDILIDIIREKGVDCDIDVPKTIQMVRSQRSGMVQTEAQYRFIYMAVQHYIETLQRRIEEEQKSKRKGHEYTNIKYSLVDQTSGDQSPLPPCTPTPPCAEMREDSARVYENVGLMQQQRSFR

Row | SMILES | inhibition
26 | CCCCCNC(=O)C(Cc1ccc(O)c(C(=O)O)c1)NC(=O)CCC(=O)O (centres undefined) | 3%
27 | O=C(O)CCC(=O)NC(Cc1ccc(OC(C(=O)O)C(=O)O)cc1)C(=O)NCc1cccc2ccccc12 (centres undefined) | 12%
28 | CCCCCNC(=O)C(Cc1ccc(C=C(C(=O)O)C(=O)O)cc1)NC(=O)CCC(=O)O (centres undefined) | 52%
29 | CCCCCNC(=O)C(CCc1ccc(OC(C(=O)O)C(=O)O)cc1)NC(=O)CCC(=O)O (centres undefined) | 10%
30 | NS(=O)(=O)c1ccc(CCNC(=O)C(Cc2ccc(OC(C(=O)O)C(=O)O)cc2)NC(=O)CCC(=O)O)cc1 (centres undefined) | 17%
31 | CCCCCNC(=O)C(Cc1ccc(OC(C(=O)O)C(=O)O)cc1)NC(=O)[C@H](COc1ccc(Cc2cc(Cl)ccc2Cl)cc1)NC(=O)OC(C)(C)C (some centres undefined) | 45%
32 | O=C(O)CCC(=O)NC(Cc1ccc(OC(C(=O)O)C(=O)O)cc1)C(=O)NCc1ccc(C(F)(F)F)cc1 (centres undefined) | 15%
33 | CCCCCNC(=O)C(Cc1ccc(OC(C(=O)O)C(=O)O)cc1)NC(=O)CCCC(=O)O (centres undefined) | 10%
34 | CCCCCNC(=O)C(Cc1ccc(OC(C(=O)OCC)C(=O)OCC)cc1)NC(=O)CCC(=O)O (centres undefined) | 0%
35 | CCCCCNC(=O)C(Cc1ccc(OC(C(=O)O)C(=O)O)cc1)NC(=O)CC1(CC(=O)O)CCCC1 (centres undefined) | 18%
36 | O=C(O)CCC(=O)NC(Cc1ccc(OC(C(=O)O)C(=O)O)cc1)C(=O)NCc1ccc2c(c1)OCO2 (centres undefined) | 12%
37 | CC(C)CCNC(=O)C(Cc1ccc(OC(C(=O)O)C(=O)O)cc1)NC(=O)CCC(=O)O (centres undefined) | 7%
38 | CCCCCCNC(=O)C(Cc1ccc(OC(C(=O)O)C(=O)O)cc1)NC(=O)CCC(=O)O (centres undefined) | 8%
39 | CCCCCNC(=O)[C@@H](Cc1ccc(OC(C(=O)O)C(=O)O)cc1)NC(=O)CCC(=O)O | 4%
40 | CCCCCNC(=O)C(Cc1ccc(CC(C(=O)O)C(=O)O)cc1)NC(=O)CCC(=O)O (centres undefined) | 3%
41 | O=C(O)CCC(=O)NC(Cc1ccc(OC(C(=O)O)C(=O)O)cc1)C(=O)NCC1CCCCC1 (centres undefined) | 12%
42 | CCCCC(N)C(=O)NC(=O)C(Cc1ccc(OC(C(=O)O)C(=O)O)cc1)NC(=O)CCC(=O)O (centres undefined) | 48%
43 | CCCCCCCCCCNC(=O)C(Cc1ccc(OC(C(=O)O)C(=O)O)cc1)NC(=O)CCC(=O)O (centres undefined) | 9%
44 | CCCCCNC(=O)C(Cc1ccc(OCC(=O)O)cc1)NC(=O)CCC(=O)O (centres undefined) | 0%
45 | CCCCCNC(=O)C(Cc1ccc(OC(C(=O)O)C(=O)O)cc1)NC(=O)COCC(=O)O (centres undefined) | 8%
46 | CCCCCNC(=O)C(Cc1ccc(OC(C(=O)O)C(=O)O)cc1)NC(=O)[C@H](CC(=O)O)NC(=O)OCc1ccccc1 (some centres undefined) | 50%
47 | CCCCCNC(=O)C(Cc1ccc(OC(C(=O)O)C(=O)O)cc1)NC(=O)[C@H](COc1ccc(Cc2cc(Cl)ccc2Cl)cc1)NC(=O)CCC(=O)O (some centres undefined) | 28%
48 | CCCCCNC(=O)C(Cc1ccc(OC(C(=O)O)C(=O)O)cc1)NC(=O)[C@H]1CCCC[C@@H]1C(=O)O (some centres undefined) | 10%
49 | CCCCCNC(=O)C(Cc1ccc(OC(C(=O)O)C(=O)O)cc1)NC(=O)[C@H](Cc1ccc(C(=O)c2ccccc2)cc1)NC(=O)OC(C)(C)C (some centres undefined) | 11%
50 | CCCCCNC(=O)C(Cc1ccc(OC(C(=O)O)C(=O)O)cc1)NC(=O)CC(C)(C)CC(=O)O (centres undefined) | 16%

target: Receptor-type tyrosine-protein phosphatase F (Homo sapiens) (UniProt P10586); assay: Percent inhibition of Protein-tyrosine phosphatase Lar assayed at 100 uM; conditions: not given
Sequence (P10586 whole entry): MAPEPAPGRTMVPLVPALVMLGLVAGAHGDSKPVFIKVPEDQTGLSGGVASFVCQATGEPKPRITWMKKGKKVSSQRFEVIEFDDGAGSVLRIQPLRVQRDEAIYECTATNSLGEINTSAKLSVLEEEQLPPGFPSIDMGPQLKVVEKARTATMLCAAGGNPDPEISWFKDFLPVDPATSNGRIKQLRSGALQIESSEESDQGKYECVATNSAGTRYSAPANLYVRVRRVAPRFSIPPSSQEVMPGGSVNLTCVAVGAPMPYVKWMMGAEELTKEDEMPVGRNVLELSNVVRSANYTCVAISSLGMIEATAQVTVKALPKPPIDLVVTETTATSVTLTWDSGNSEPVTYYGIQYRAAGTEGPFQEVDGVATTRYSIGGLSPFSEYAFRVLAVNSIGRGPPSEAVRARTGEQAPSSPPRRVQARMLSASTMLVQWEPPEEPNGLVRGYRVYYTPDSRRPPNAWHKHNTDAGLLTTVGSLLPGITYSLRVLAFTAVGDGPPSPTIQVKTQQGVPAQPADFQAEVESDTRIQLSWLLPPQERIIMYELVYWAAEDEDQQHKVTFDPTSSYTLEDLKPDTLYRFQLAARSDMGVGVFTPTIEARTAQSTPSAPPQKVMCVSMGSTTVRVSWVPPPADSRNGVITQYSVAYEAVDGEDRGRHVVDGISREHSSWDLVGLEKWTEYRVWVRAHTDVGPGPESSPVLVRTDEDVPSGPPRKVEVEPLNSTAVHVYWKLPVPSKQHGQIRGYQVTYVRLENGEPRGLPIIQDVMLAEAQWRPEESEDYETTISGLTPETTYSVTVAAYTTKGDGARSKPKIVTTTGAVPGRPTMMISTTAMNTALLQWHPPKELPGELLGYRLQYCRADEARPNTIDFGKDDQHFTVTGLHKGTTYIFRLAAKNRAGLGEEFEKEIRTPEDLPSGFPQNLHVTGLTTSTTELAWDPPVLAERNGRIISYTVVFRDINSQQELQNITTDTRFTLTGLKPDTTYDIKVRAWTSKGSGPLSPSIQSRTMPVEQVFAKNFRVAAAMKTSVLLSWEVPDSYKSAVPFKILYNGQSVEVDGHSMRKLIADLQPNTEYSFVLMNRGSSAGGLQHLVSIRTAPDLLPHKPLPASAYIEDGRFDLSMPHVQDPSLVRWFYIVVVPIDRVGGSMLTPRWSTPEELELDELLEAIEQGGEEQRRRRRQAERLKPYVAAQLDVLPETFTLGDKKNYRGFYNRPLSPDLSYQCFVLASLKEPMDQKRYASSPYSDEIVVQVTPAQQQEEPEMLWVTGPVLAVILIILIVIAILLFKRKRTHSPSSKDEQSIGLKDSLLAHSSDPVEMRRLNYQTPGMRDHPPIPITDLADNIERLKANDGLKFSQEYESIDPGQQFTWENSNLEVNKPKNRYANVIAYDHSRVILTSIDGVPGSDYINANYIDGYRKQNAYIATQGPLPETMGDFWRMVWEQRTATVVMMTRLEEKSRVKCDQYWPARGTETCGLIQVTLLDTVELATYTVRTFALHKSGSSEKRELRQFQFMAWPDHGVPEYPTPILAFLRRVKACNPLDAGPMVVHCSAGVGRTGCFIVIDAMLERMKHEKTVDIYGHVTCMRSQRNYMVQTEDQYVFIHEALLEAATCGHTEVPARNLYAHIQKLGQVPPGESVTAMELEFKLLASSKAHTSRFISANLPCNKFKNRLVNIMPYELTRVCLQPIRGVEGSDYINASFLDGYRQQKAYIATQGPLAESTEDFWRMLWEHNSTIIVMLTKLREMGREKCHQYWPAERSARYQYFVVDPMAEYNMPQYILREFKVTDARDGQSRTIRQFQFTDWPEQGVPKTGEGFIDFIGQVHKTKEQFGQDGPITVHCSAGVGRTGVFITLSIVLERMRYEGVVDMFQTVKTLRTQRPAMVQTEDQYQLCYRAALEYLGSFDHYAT

Row | SMILES | inhibition
51 | CCCCCNC(=O)C(Cc1ccc(O)c(C(=O)O)c1)NC(=O)CCC(=O)O (centres undefined) | 0%
52 | O=C(O)CCC(=O)NC(Cc1ccc(OC(C(=O)O)C(=O)O)cc1)C(=O)NCc1cccc2ccccc12 (centres undefined) | 10%
53 | CCCCCNC(=O)C(Cc1ccc(C=C(C(=O)O)C(=O)O)cc1)NC(=O)CCC(=O)O (centres undefined) | 2%
54 | CCCCCNC(=O)C(CCc1ccc(OC(C(=O)O)C(=O)O)cc1)NC(=O)CCC(=O)O (centres undefined) | 0%
55 | NS(=O)(=O)c1ccc(CCNC(=O)C(Cc2ccc(OC(C(=O)O)C(=O)O)cc2)NC(=O)CCC(=O)O)cc1 (centres undefined) | 5%
56 | CCCCCNC(=O)C(Cc1ccc(OC(C(=O)O)C(=O)O)cc1)NC(=O)[C@H](COc1ccc(Cc2cc(Cl)ccc2Cl)cc1)NC(=O)OC(C)(C)C (some centres undefined) | 27%
57 | O=C(O)CCC(=O)NC(Cc1ccc(OC(C(=O)O)C(=O)O)cc1)C(=O)NCc1ccc(C(F)(F)F)cc1 (centres undefined) | 4%
58 | CCCCCNC(=O)C(Cc1ccc(OC(C(=O)O)C(=O)O)cc1)NC(=O)CCCC(=O)O (centres undefined) | 7%
59 | CCCCCNC(=O)C(Cc1ccc(OC(C(=O)O)C(=O)O)cc1)NC(=O)CC1(CC(=O)O)CCCC1 (centres undefined) | 9%
60 | O=C(O)CCC(=O)NC(Cc1ccc(OC(C(=O)O)C(=O)O)cc1)C(=O)NCc1ccc2c(c1)OCO2 (centres undefined) | 6%
61 | CC(C)CCNC(=O)C(Cc1ccc(OC(C(=O)O)C(=O)O)cc1)NC(=O)CCC(=O)O (centres undefined) | 5%
62 | CCCCCCNC(=O)C(Cc1ccc(OC(C(=O)O)C(=O)O)cc1)NC(=O)CCC(=O)O (centres undefined) | 5%
63 | CCCCCNC(=O)[C@@H](Cc1ccc(OC(C(=O)O)C(=O)O)cc1)NC(=O)CCC(=O)O | 1%
64 | CCCCCNC(=O)C(Cc1ccc(CC(C(=O)O)C(=O)O)cc1)NC(=O)CCC(=O)O (centres undefined) | 3%
65 | O=C(O)CCC(=O)NC(Cc1ccc(OC(C(=O)O)C(=O)O)cc1)C(=O)NCC1CCCCC1 (centres undefined) | 5%
66 | CCCCC(N)C(=O)NC(=O)C(Cc1ccc(OC(C(=O)O)C(=O)O)cc1)NC(=O)CCC(=O)O (centres undefined) | 4%
67 | CCCCCCCCCCNC(=O)C(Cc1ccc(OC(C(=O)O)C(=O)O)cc1)NC(=O)CCC(=O)O (centres undefined) | 4%
68 | CCCCCNC(=O)C(Cc1ccc(OCC(=O)O)cc1)NC(=O)CCC(=O)O (centres undefined) | 0%
69 | CCCCCNC(=O)C(Cc1ccc(OC(C(=O)O)C(=O)O)cc1)NC(=O)COCC(=O)O (centres undefined) | 5%
70 | CCCCCNC(=O)C(Cc1ccc(OC(C(=O)O)C(=O)O)cc1)NC(=O)[C@H](CC(=O)O)NC(=O)OCc1ccccc1 (some centres undefined) | 6%
71 | CCCCCNC(=O)C(Cc1ccc(OC(C(=O)O)C(=O)O)cc1)NC(=O)[C@H](COc1ccc(Cc2cc(Cl)ccc2Cl)cc1)NC(=O)CCC(=O)O (some centres undefined) | 33%
72 | CCCCCNC(=O)C(Cc1ccc(OC(C(=O)O)C(=O)O)cc1)NC(=O)[C@H]1CCCC[C@@H]1C(=O)O (some centres undefined) | 7%
73 | CCCCCNC(=O)C(Cc1ccc(OC(C(=O)O)C(=O)O)cc1)NC(=O)[C@H](Cc1ccc(C(=O)c2ccccc2)cc1)NC(=O)OC(C)(C)C (some centres undefined) | 24%
74 | CCCCCNC(=O)C(Cc1ccc(OC(C(=O)O)C(=O)O)cc1)NC(=O)CC(C)(C)CC(=O)O (centres undefined) | 6%
